The record followed here is US10954232B2, “Pyrazole derivative as ALK5 inhibitor and uses thereof” (HANMI PHARMACEUTICAL CO., LTD., priority 2016, dated 2021).

Each structure is given as a SMILES string.

This experiment concerns the target T1, ALK5 kinase (Homo sapiens, UniProt P36897).
T1 construct: GST; purchased Thermo Fisher Scientific Solutions
T1 sequence (P36897 34-503): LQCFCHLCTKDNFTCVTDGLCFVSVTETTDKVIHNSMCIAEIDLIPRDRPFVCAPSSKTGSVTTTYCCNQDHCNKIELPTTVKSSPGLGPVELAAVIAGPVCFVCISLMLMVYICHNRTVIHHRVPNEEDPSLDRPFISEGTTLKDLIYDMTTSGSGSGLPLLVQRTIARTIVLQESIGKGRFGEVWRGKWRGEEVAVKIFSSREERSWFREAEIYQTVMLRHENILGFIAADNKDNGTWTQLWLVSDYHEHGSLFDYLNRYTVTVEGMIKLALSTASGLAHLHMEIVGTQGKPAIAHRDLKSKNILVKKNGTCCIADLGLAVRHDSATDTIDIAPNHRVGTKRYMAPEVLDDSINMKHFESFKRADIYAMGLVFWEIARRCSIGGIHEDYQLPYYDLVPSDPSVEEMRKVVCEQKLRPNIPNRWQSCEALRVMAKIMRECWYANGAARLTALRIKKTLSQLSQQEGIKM
In words: Activity inhibition test on ALK5 enzyme (LanthaScreen Eu binding kinase assay). The following applies: kinase tracer 178, 60 minutes at room temperature. The gist of the method:
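TR-FRET tracer-displacement format with final 5 nM ALK5, 2 nM Eu-GST antibody and 10 nM kinase tracer 178. Compound dilution series ran 1 μM–0.0001 μM, incubated 60 min at room temperature with stirring. Fluorescence was read ([…]), and IC50 came from percent inhibition versus control.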
Background: In TR-FRET formats the signal depends on donor and acceptor labels being close together.
One may read the IC50 as the point on the concentration scale where inhibition reaches its midpoint. `Cc1cccc(-n2nc(C(=O)Nc3ccc(N4CCCC4)cc3)cc2-c2ccc3ncnn3c2)n1` [Example 105, 5-([1,2,4]triazolo[1,5-α]pyridin-6-yl)-N-(4-(pyrrolidin-1-yl)phenyl)-1-(6-methylpyridin-2-yl)-1H-pyrazole-3-carboxyamide] showed an IC50 of 7 nM. In other words, the single-digit nanomolar range.

The molecule `Cc1cccc(-n2nc(C(=O)Nc3ccc(N(C)CCN(C)C)cc3)cc2-c2ccc3ncnn3c2)n1` [Example 106, 5-([1,2,4]triazolo[1,5-α]pyridin-6-yl)-N-(4-((2-(dimethylamino)ethyl)(methyl)amino)phenyl)-1-(6-methylpyridin-2-yl)-1H-pyrazole-3-carboxyamide] had an IC50 of 14 nM. This IC50 is about 2-fold higher than that of the molecule before.

The molecule `Cc1cccc(-n2nc(C(=O)Nc3ccc(N4CCN(C)CC4)cc3)cc2-c2ccc3ncnn3c2)n1` [Example 107, 5-([1,2,4]triazolo[1,5-α]pyridin-6-yl)-N-(4-(4-methylpiperazin-1-yl)phenyl)-1-(6-methylpyridin-2-yl)-1H-pyrazole-3-carboxyamide] showed an IC50 of 10 to 100 nM.

`CC(=O)N1CCN(c2ccc(NC(=O)c3cc(-c4ccc5ncnn5c4)n(-c4cccc(C)n4)n3)cc2)CC1` [Example 108, 5-([1,2,4]triazolo[1,5-α]pyridin-6-yl)-N-(4-(4-acetylpiperazin-1-yl)phenyl)-1-(6-methylpyridin-2-yl)-1H-pyrazole-3-carboxyamide]: the IC50 is roughly 10 nM.

`CC(=O)Nc1ccc(NC(=O)c2cc(-c3ccc4ncnn4c3)n(-c3cccc(C)n3)n2)cc1` [Example 110, 5-([1,2,4]triazolo[1,5-α]pyridin-6-yl)-N-(4-acetamidophenyl)-1-(6-methylpyridin-2-yl)-1H-pyrazole-3-carboxyamide] came in with a 50% inhibitory concentration (IC50) of 10 to 100 nM.

Turning to `Cc1cccc(-n2nc(C(=O)Nc3ccc(CN(C)C)cc3)cc2-c2ccc3ncnn3c2)n1` [Example 111, 5-([1,2,4]triazolo[1,5-α]pyridin-6-yl)-N-(4-((dimethylamino)methyl)phenyl)-1-(6-methylpyridin-2-yl)-1H-pyrazole-3-carboxyamide], the IC50 was greater than 100 nM.

As to `CNC(=O)c1ccccc1NC(=O)c1cc(-c2ccc3ncnn3c2)n(-c2cccc(C)n2)n1` [Example 112, 5-([1,2,4]triazolo[1,5-α]pyridin-6-yl)-N-(2-(methylcarbamoyl)phenyl)-1-(6-methylpyridin-2-yl)-1H-pyrazole-3-carboxyamide], the IC50 lay within 10 to 100 nM.

Molecule `CNC(=O)c1ccc(NC(=O)c2cc(-c3ccc4ncnn4c3)n(-c3cccc(C)n3)n2)cc1` [Example 113, 5-([1,2,4]triazolo[1,5-α]pyridin-6-yl)-N-(4-(methylcarbamoyl)phenyl)-1-(6-methylpyridin-2-yl)-1H-pyrazole-3-carboxyamide] returned an IC50 of 10 to 100 nM.

Turning to `Cc1cccc(-n2nc(C(=O)Nc3ccccc3)cc2-c2ccc3ncnn3c2)n1` [Example 114, 5-([1,2,4]triazolo[1,5-α]pyridin-6-yl)-1-(6-methylpyridin-2-yl)-N-phenyl-1H-pyrazole-3-carboxyamide], the IC50 was 9.5 nM. In other words, the single-digit nanomolar range.

Regarding `Cc1cccc(-n2nc(C(=O)Nc3ccccc3C)cc2-c2ccc3ncnn3c2)n1` [Example 115, 5-([1,2,4]triazolo[1,5-α]pyridin-6-yl)-1-(6-methylpyridin-2-yl)-N-(o-tolyl)-1H-pyrazole-3-carboxyamide], the IC50 fell in the range of 10 to 100 nM.

`Cc1cccc(NC(=O)c2cc(-c3ccc4ncnn4c3)n(-c3cccc(C)n3)n2)c1` [Example 116, 5-([1,2,4]triazolo[1,5-α]pyridin-6-yl)-1-(6-methylpyridin-2-yl)-N-(m-tolyl)-1H-pyrazole-3-carboxyamide] gave an IC50 of roughly 10 nM.

In turn, `Cc1ccc(NC(=O)c2cc(-c3ccc4ncnn4c3)n(-c3cccc(C)n3)n2)cc1` [Example 117, 5-([1,2,4]triazolo[1,5-α]pyridin-6-yl)-1-(6-methylpyridin-2-yl)-N-(p-tolyl)-1H-pyrazole-3-carboxyamide] showed an IC50 of 10 to 100 nM.

Regarding `Cc1cccc(-n2nc(C(=O)Nc3cccc(C(F)(F)F)c3)cc2-c2ccc3ncnn3c2)n1` [Example 118, 5-([1,2,4]triazolo[1,5-α]pyridin-6-yl)-1-(6-methylpyridin-2-yl)-N-(3-(trifluoromethyl)phenyl)-1H-pyrazole-3-carboxyamide], the IC50 fell in the range of 10 to 100 nM.

Consider `C=Cc1ccc(NC(=O)c2cc(-c3ccc4ncnn4c3)n(-c3cccc(C)n3)n2)cc1` [Example 119, 5-([1,2,4]triazolo[1,5-α]pyridin-6-yl)-1-(6-methylpyridin-2-yl)-N-(4-vinylphenyl)-1H-pyrazole-3-carboxyamide], for which the IC50 is less than 10 nM.

The molecule `Cc1cccc(-n2nc(C(=O)Nc3cccc(C#N)c3)cc2-c2ccc3ncnn3c2)n1` [Example 120, 5-([1,2,4]triazolo[1,5-α]pyridin-6-yl)-N-(3-cyanophenyl)-1-(6-methylpyridin-2-yl)-1H-pyrazole-3-carboxyamide] came in with an IC50 of 10 to 100 nM.

Turning to `Cc1cccc(-n2nc(C(=O)Nc3ccc(C#N)cc3)cc2-c2ccc3ncnn3c2)n1` [Example 121, 5-([1,2,4]triazolo[1,5-α]pyridin-6-yl)-N-(4-cyanophenyl)-1-(6-methylpyridin-2-yl)-1-H-pyrazole-3-carboxyamide], the IC50 was in the range of 10 to 100 nM.

For `CC(=O)c1cccc(NC(=O)c2cc(-c3ccc4ncnn4c3)n(-c3cccc(C)n3)n2)c1` [Example 122, 5-([1,2,4]triazolo[1,5-α]pyridin-6-yl)-N-(3-acetylphenyl)-1-(6-methylpyridin-2-yl)-1H-pyrazole-3-carboxyamide], the IC50 is 10 to 100 nM.

In turn, `CC(=O)c1ccc(NC(=O)c2cc(-c3ccc4ncnn4c3)n(-c3cccc(C)n3)n2)cc1` [Example 123, 5-([1,2,4]triazolo[1,5-α]pyridin-6-yl)-N-(4-acetylphenyl)-1-(6-methylpyridin-2-yl)-1H-pyrazole-3-carboxyamide] displayed an IC50 of 10 to 100 nM.

For `Cc1cccc(-n2nc(C(=O)Nc3ccccc3F)cc2-c2ccc3ncnn3c2)n1` [Example 124, 5-([1,2,4]triazolo[1,5-α]pyridin-6-yl)-N-(2-fluorophenyl)-1-(6-methylpyridin-2-yl)-1H-pyrazole-3-carboxyamide], the IC50 amounted to 31 nM.

`Cc1cccc(-n2nc(C(=O)Nc3cccc(F)c3)cc2-c2ccc3ncnn3c2)n1` [Example 125, 5-([1,2,4]triazolo[1,5-α]pyridin-6-yl)-N-(3-fluorophenyl)-1-(6-methylpyridin-2-yl)-1H-pyrazole-3-carboxyamide] displayed an IC50 of 10 to 100 nM.

As for `Cc1cccc(-n2nc(C(=O)Nc3ccc(F)cc3)cc2-c2ccc3ncnn3c2)n1` [Example 126, 5-([1,2,4]triazolo[1,5-α]pyridin-6-yl)-N-(4-fluorophenyl)-1-(6-methylpyridin-2-yl)-1H-pyrazole-3-carboxyamide], the IC50 was roughly 10 nM.

`Cc1cccc(-n2nc(C(=O)Nc3ccccc3Cl)cc2-c2ccc3ncnn3c2)n1` [Example 127, 5-([1,2,4]triazolo[1,5-α]pyridin-6-yl)-N-(2-chlorophenyl)-1-(6-methylpyridin-2-yl)-1H-pyrazole-3-carboxyamide] registered a half-inhibitory concentration (IC50) of roughly 100 nM.

With `Cc1cccc(-n2nc(C(=O)Nc3cccc(Cl)c3)cc2-c2ccc3ncnn3c2)n1` [Example 128, 5-([1,2,4]triazolo[1,5-α]pyridin-6-yl)-N-(3-chlorophenyl)-1-(6-methylpyridin-2-yl)-1H-pyrazole-3-carboxyamide], the IC50 lay within 10 to 100 nM.

Consider `Cc1cccc(-n2nc(C(=O)Nc3ccc(Cl)cc3)cc2-c2ccc3ncnn3c2)n1` [Example 129, 5-([1,2,4]triazolo[1,5-α]pyridin-6-yl)-N-(4-chlorophenyl)-1-(6-methylpyridin-2-yl)-1H-pyrazole-3-carboxyamide], for which the 50% inhibitory concentration (IC50) is 10 to 100 nM.

On to `Cc1cccc(-n2nc(C(=O)Nc3ccccc3Br)cc2-c2ccc3ncnn3c2)n1` [Example 130, 5-([1,2,4]triazolo[1,5-α]pyridin-6-yl)-N-(2-bromophenyl)-1-(6-methylpyridin-2-yl)-1H-pyrazole-3-carboxyamide], for which the 50% inhibitory concentration (IC50) is 10 to 100 nM.

`Cc1cccc(-n2nc(C(=O)Nc3cccc(Br)c3)cc2-c2ccc3ncnn3c2)n1` [Example 131, 5-([1,2,4]triazolo[1,5-α]pyridin-6-yl)-N-(3-bromophenyl)-1-(6-methylpyridin-2-yl)-1H-pyrazole-3-carboxyamide] had an IC50 of 10 to 100 nM.

As to `Cc1cccc(-n2nc(C(=O)Nc3ccc(Br)cc3)cc2-c2ccc3ncnn3c2)n1` [Example 132, 5-([1,2,4]triazolo[1,5-α]pyridin-6-yl)-N-(4-bromophenyl)-1-(6-methylpyridin-2-yl)-1H-pyrazole-3-carboxyamide], the IC50 is roughly 10 nM.

`Cc1cccc(-n2nc(C(=O)Nc3cccc(F)c3F)cc2-c2ccc3ncnn3c2)n1` [Example 133, 5-([1,2,4]triazolo[1,5-α]pyridin-6-yl)-N-(2,3-difluorophenyl)-1-(6-methylpyridin-2-yl)-1H-pyrazole-3-carboxyamide] yielded an IC50 of 10 to 100 nM.

Molecule `Cc1cccc(-n2nc(C(=O)Nc3ccc(F)cc3F)cc2-c2ccc3ncnn3c2)n1` [Example 134, 5-([1,2,4]triazolo[1,5-α]pyridin-6-yl)-N-(2,4-difluorophenyl)-1-(6-methylpyridin-2-yl)-1H-pyrazole-3-carboxyamide] came in with an IC50 of 10 to 100 nM.
